Experimental data as given in patent publication US12137690B2, “Herbicidal mixtures comprising L-glufosinate and their use in cotton cultures” (BASF SE, priority 2017, dated 2024).

Assays:
Assay in all cases: Post emergence treatment, herbicidal activity on scale 0 to 100, synergism by Colby
Format in all cases: in vivo
Conditions in all cases: scale 0-100
[1] = test system: ECHCG (Echinochloa crus-galli)
Method: (§1) The presence of a synergistic effect in terms of percent control, between two mixing partners (X and Y) can be calculated using the Colby equation (Colby, S. R., 1967, Calculating Synergistic and Antagonistic Responses in Herbicide Combinations, Weeds, 15, 21-22):
(§2) The analysis of synergism or antagonism between the mixtures or compositions was determined using Colby's equation.
(§3) The culture containers used were plastic flowerpots containing loamy sand with approximately 3.0% of humus as the substrate. The seeds of the test plants were sown separately for each species and/or resistant biotype. […] The containers were irrigated gently to promote germination and growth and subsequently covered with transparent plastic hoods until the plants had rooted. This cover caused uniform germination of the test plants, unless this had been impaired by the active ingredients. […] For this purpose, the test plants were either sown directly and grown in the same containers, or they were first grown separately as seedlings and transplanted into the test containers a few days prior to treatment. Depending on the species, the plants were kept at 10-25° C. or 20-35° C., respectively. The test period extended to 20 days after treatment. During this time, the plants were tended, and their response to the individual treatments was evaluated. The evaluation was carried out by using a scale from 0 to 100. 100 means no emergence of the plants or complete destruction of at least the above-ground parts, and 0 means no damage, or normal course of growth. Data shown are the mean of two replications.

SETVI (Setaria viridis) = test system: SETVI (Setaria viridis)
Method: as §1, §2, §3

AVEFA (Avena fatua) = test system: AVEFA (Avena fatua)
Method: as §1, §2, §3

[2] = test system: ERICA (Erigeron Canadensis, Conyza canadensis)
Method: as §1, §2, §3

[3] = test system: CHEAL (Chenopodium album)
Method: as §1, §2, §3

CYPIR (Cyperus iria) = test system: CYPIR (Cyperus iria)
Method: as §1, §2, §3

KCHSC (Kochia scoparia) = test system: KCHSC (Kochia scoparia)
Method: as §1, §2, §3

[4] = test system: ABUTH (Abutilon theophrasti)
Method: as §1, §2, §3

[5] = 2,4-D as dimethylammonium salt 70 g ai/ha
[6] = 2,4-D as dimethylammonium salt 140 g ai/ha

With bicyclopyrone the “Herbicidal activity against ECHCG, Found” value ([1]; Bicyclopyrone 2 g ai/ha) was 0.

`Cc1c(C(=O)c2cnn(C)c2O)ccc(S(C)(=O)=O)c1C1=NOCC1` [Topramezone, topramezone] was tested, and the “Herbicidal activity against ECHCG, Found” value ([1]; Topramezone 1 g ai/ha) was 0.

In the case of `CC(C)N(C)S(=O)(=O)NC(=O)c1cc(-n2c(=O)cc(C(F)(F)F)n(C)c2=O)c(F)cc1Cl` [Saflufenacil, saflufenacil], the “Herbicidal activity against ECHCG, Found” value ([1]; Saflufenacil 0.5 g ai/ha) is reported as 0.

For `CNC.O=C(O)COc1ccc(Cl)cc1Cl` [2,4-D as dimethylammonium salt, 2,4-D dimethylammonium salt], the “Herbicidal activity against SETVI, Found” value (SETVI (Setaria viridis); [5]) was 0, the “Herbicidal activity against SETVI, Found” value (SETVI (Setaria viridis); [6]) was 0 and the “Herbicidal activity against AVEFA, Found” value (AVEFA (Avena fatua); [5]) was 0. The “Herbicidal activity against AVEFA, Found” value (AVEFA (Avena fatua); [6]) was 0.

In the case of `Cc1nn(-c2cc(NS(C)(=O)=O)c(Cl)cc2Cl)c(=O)n1C(F)F` [Sulfentrazone, sulfentrazone], the “Herbicidal activity against ERICA, Found” value ([2]; Sulfentrazone 1.25 g ai/ha) is reported as 0 and the “Herbicidal activity against ERICA, Found” value ([2]; Sulfentrazone 2.5 g ai/ha) is reported as 0.

In the case of `CCc1cccc(C)c1N(C(=O)CCl)[C@@H](C)COC` [S-Metolachlor, S-metolachlor], the “Herbicidal activity against CHEAL, Found” value ([3]; S-Metolachlor 500 g ai/ha) is reported as 20 and the “Herbicidal activity against CHEAL, Found” value ([3]; S-Metolachlor 1000 g ai/ha) is reported as 75.

`O=C(Nc1ccccc1)Nc1cnns1` [Thidiazuron] was tested, and the “Herbicidal activity against SETVI, Found” value (SETVI (Setaria viridis); Thidiazuron 50 g ai/ha) was 0.

With `C#CCN1C(=O)C(F)(F)Oc2cc(F)c(-n3c(=O)n(C)c(=S)n(C)c3=O)cc21` [Trifludimoxazin, trifludimoxazin] the “Herbicidal activity against ECHCG, Found” value ([1]; Trifludimoxazin 0.25 g ai/ha) was 10.

`CNC.COc1c(Cl)ccc(Cl)c1C(=O)O` [Dicamba as dimethylammonium salt, Dicamba dimethylammonium salt] was tested, and the “Herbicidal activity against SETVI, Found” value (SETVI (Setaria viridis); Dicamba as dimethylammonium salt 35 g ai/ha) was 0, the “Herbicidal activity against SETVI, Found” value (SETVI (Setaria viridis); Dicamba as dimethylammonium salt 70 g ai/ha) was 0 and the “Herbicidal activity against SETVI, Found” value (SETVI (Setaria viridis); Dicamba as dimethylammonium salt 140 g ai/ha) was 30.

With `CCOC(=O)COc1ncccc1Oc1cc(-n2c(=O)cc(C(F)(F)F)n(C)c2=O)c(F)cc1Cl` [Compound II-83, ethyl [3-[2-chloro-4-fluoro-5-(1-methyl-6-trifluoromethyl-2,4-dioxo-1,2,3,4-tetrahydropyrimidin-3-yl)phenoxy]-2-pyridyloxy]acetate] the “Herbicidal activity against CYPIR, Found” value (CYPIR (Cyperus iria); Compound II-83 0.25 g ai/ha) was 0.

In the case of `COC[C@H](C)N(C(=O)CCl)c1c(C)csc1C` [Dimethenamid-P, dimethenamid-P], the “Herbicidal activity against KCHSC, Found” value (KCHSC (Kochia scoparia); Dimethenamid-P 500 g ai/ha) is reported as 0 and the “Herbicidal activity against KCHSC, Found” value (KCHSC (Kochia scoparia); Dimethenamid-P 1000 g ai/ha) is reported as 70.

`CS(=O)(=O)c1ccc(C(=O)C2C(=O)CCCC2=O)c(Cl)c1COCC(F)(F)F` [Tembotrione, tembotrione] was tested, and the “Herbicidal activity against ECHCG, Found” value ([1]; Tembotrione 0.5 g ai/ha) was 0.

With `CP(=O)(O)CC[C@H](N)C(=O)O` [L-Glufosinate, (2S)-2-amino-4-[hydroxy(methyl)phosphinoyl]butyric acid] the “Herbicidal activity against KCHSC, Found” value (KCHSC (Kochia scoparia); L-Glufosinate 200 g ai/ha) was 90, the “Herbicidal activity against ECHCG, Found” value ([1]; Example 4, L-Glufosinate 200 g ai/ha) was 0 and the “Herbicidal activity against ECHCG, Found” value ([1]; Example 4, L-Glufosinate 400 g ai/ha) was 65. For the same molecule, the “Herbicidal activity against ECHCG, Found” value ([1]; Example 6, L-Glufosinate 200 g ai/ha) was 0, the “Herbicidal activity against ECHCG, Found” value ([1]; Example 6, L-Glufosinate 400 g ai/ha) was 65 and the “Herbicidal activity against ECHCG, Found” value ([1]; Example 12, L-Glufosinate 100 g ai/ha) was 0. For the same molecule, the “Herbicidal activity against ECHCG, Found” value ([1]; Example 12, L-Glufosinate 200 g ai/ha) was 0, the “Herbicidal activity against ECHCG, Found” value ([1]; Example 13, L-Glufosinate 100 g ai/ha) was 0 and the “Herbicidal activity against ECHCG, Found” value ([1]; Example 13, L-Glufosinate 200 g ai/ha) was 0. The “Herbicidal activity against ECHCG, Found” value ([1]; Example 14, L-Glufosinate 100 g ai/ha) was 0, the “Herbicidal activity against ECHCG, Found” value ([1]; Example 14, L-Glufosinate 200 g ai/ha) was 0 and the “Herbicidal activity against CYPIR, Found” value (CYPIR (Cyperus iria); L-Glufosinate 200 g ai/ha) was 0. The “Herbicidal activity against SETVI, Found” value (SETVI (Setaria viridis); Example 8, L-Glufosinate 100 g ai/ha) was 30, the “Herbicidal activity against SETVI, Found” value (SETVI (Setaria viridis); Example 9, L-Glufosinate 100 g ai/ha) was 30 and the “Herbicidal activity against SETVI, Found” value (SETVI (Setaria viridis); L-Glufosinate 75 g ai/ha) was 0. For the same molecule, the “Herbicidal activity against SETVI, Found” value (SETVI (Setaria viridis); L-Glufosinate 150 g ai/ha) was 70, the “Herbicidal activity against ABUTH, Found” value ([4]; L-Glufosinate 75 g ai/ha) was 0 and the “Herbicidal activity against CHEAL, Found” value ([3]; L-Glufosinate 100 g ai/ha) was 0. The “Herbicidal activity against ERICA, Found” value ([2]; L-Glufosinate 75 g ai/ha) was 90, the “Herbicidal activity against AVEFA, Found” value (AVEFA (Avena fatua); L-Glufosinate 100 g ai/ha) was 35 and the “Herbicidal activity against AVEFA, Found” value (AVEFA (Avena fatua); L-Glufosinate 300 g ai/ha) was 20.

For `CN(C)C(=O)Nc1ccc(Cl)c(Cl)c1` [Diuron, diuron], the “Herbicidal activity against AVEFA, Found” value (AVEFA (Avena fatua); Diuron 125 g ai/ha) was 20 and the “Herbicidal activity against AVEFA, Found” value (AVEFA (Avena fatua); Diuron 250 g ai/ha) was 30.

In the case of `CN(C)C(=O)Nc1cccc(C(F)(F)F)c1` [Fluometuron, fluometuron], the “Herbicidal activity against ABUTH, Found” value ([4]; Fluometuron 125 g ai/ha) is reported as 0 and the “Herbicidal activity against ABUTH, Found” value ([4]; Fluometuron 250 g ai/ha) is reported as 20.
